Among the data in the Deep4Chem optical property database are fluorescence lifetime values, retold here.

The nature of this data set: solvent given as SMILES.
[1] abbreviates: in c1ccc2c(c1)c1ccccc1n2-c1ccc(-c2ccc(-n3c4ccccc4c4ccccc43)cc2)cc1.

Consider `O=P1(c2ccccc2)c2ccccc2-c2sc3ccccc3c21` (centres undefined), for which the fluorescence lifetime (in ClCCl) was found to be 11.3 ns.

Take `C/C=C/c1ccc(OC)cc1`: the fluorescence lifetime is, setting by setting: (in CC#N) 8.7 ns; (in CCCCCC) 7.9 ns.

Compound `COc1ccc2c(c1)c1cc(OC)ccc1n2-c1ccc2c(c1)-c1cc(-n3c4ccc(OC)cc4c4cc(OC)ccc43)ccc1P2(=O)c1ccccc1` came in with a fluorescence lifetime under setting [1] of 16.7 ns.

`C(=C\c1ccccc1)/c1ccccc1` returned a fluorescence lifetime (in CC#N) of 0.07 ns.

In turn, `FC(F)(F)C(F)(F)C(F)(F)C1=NC2=C(Br)C=C3c4cc(Br)c5nc(C(F)(F)C(F)(F)C(F)(F)F)nc6c(Br)cc(c4c56)=C4C=C(Br)C(=N1)C2C34` (centres undefined) returned a fluorescence lifetime (in C1CCOC1) of 2.1 ns.

On to `Cc1ccc(C2=Cc3c4ccccc4c4ccccc4[n+]3[B-](F)(F)O2)cc1`, for which, under “in ClC(Cl)Cl”, the fluorescence lifetime amounted to 0.706 ns.

Where the note is “in O=P(c1ccccc1)(c1ccccc1)c1ccccc1Oc1ccccc1P(=O)(c1ccccc1)c1ccccc1”, `Cc1ccccc1-c1nc(-c2ccccc2C)nc(-c2ccc(N3c4ccccc4C4(c5ccccc5-c5ccccc54)c4ccccc43)cc2C)n1` returned a fluorescence lifetime of 24 ns.

Turning to `CCC1(CC)c2cc(C#Cc3cccs3)ccc2-c2c1c1c(c3c2C(CC)(CC)c2cc(C#Cc4cccs4)ccc2-3)C(CC)(CC)c2cc(C#Cc3cccs3)ccc2-1`, the fluorescence lifetime (in C1CCOC1) worked out at 1.5 ns.

Consider `CCc1ccc(/C=C/c2ccc(-c3nnc(-c4ccc(-c5cc6ccccc6s5)cc4)o3)cc2)cc1`, for which the fluorescence lifetime runs as follows: (in Cc1ccccc1) 0.56 ns; (in ClC(Cl)Cl) 0.61 ns.

Compound `Cc1ccc(-n2c(-c3ccccc3O)nc(-c3ccccc3O)c2-c2ccccc2O)cc1` displayed a fluorescence lifetime (in C1CCOC1) of 3.1 ns; a fluorescence lifetime (in CC(C)O) of 3.5 ns; a fluorescence lifetime (in CO) of 2.9 ns; a fluorescence lifetime (in CS(C)=O) of 3.7 ns; a fluorescence lifetime (in ClC(Cl)Cl) of 1.2 ns; a fluorescence lifetime (in ClCCl) of 1.4 ns.

In turn, `COc1ccc(C2=c3sc(-c4ccc(OC)cc4)cc3=[N+]3C2=Nc2c(-c4ccc(OC)cc4)c4sc(-c5ccc(OC)cc5)cc4n2[B-]3(F)F)cc1` had a fluorescence lifetime (in ClC(Cl)Cl) of 1.69 ns.

Consider `CC1(C)c2ccccc2N(c2ccccc2)c2ccc(-c3ccc(-c4ccc5c(c4)C(C)(C)c4ccccc4N5c4ccccc4)c4nsnc34)cc21`, for which, under setting [1], the fluorescence lifetime worked out at 7.2 ns.

Under “in Cc1ccccc1”, `O=S(=O)(c1ccc(-c2ccc3c(c2)c2ccccc2n3-c2ccccc2)cc1)c1ccc(-c2ccc3c(c2)c2ccccc2n3-c2ccccc2)cc1` yielded a fluorescence lifetime of 1.51 ns.

Compound `COc1ccc(C2=C(c3ccc(OC)cc3)[Si](c3ccccc3)(c3ccccc3)c3ccccc32)cc1` displayed a fluorescence lifetime (in C1CCOC1) of 1.37 ns.

As for `Cc1ccc(-c2ccc(/C=C/c3ccc(N(C)C)cc3)cn2)nc1`, for the setting “in CC#N”, the fluorescence lifetime was found to be 1.22 ns.

As to `Cc1cc(C)c(B(c2cc3c4c(c(B(c5c(C)cc(C)cc5C)c5c(C)cc(C)cc5C)cc5c4c2CCC5)CCC3)c2c(C)cc(C)cc2C)c(C)c1`, where the note is “in CCCCCC”, the fluorescence lifetime was determined as 14.6 ns.

For the setting “in ClCCl”, `N#Cc1ccc(N(c2ccccc2)c2ccc3ccc4c(N(c5ccccc5)c5ccc(C#N)cc5)ccc5ccc2c3c54)cc1` gave a fluorescence lifetime of 2.7 ns.

Under “in CC#N”, `COC(=O)CC1(C(=O)OC)Oc2c(c(C(C)=O)c3c(c2C(C)=O)OCO3)O1` gave a fluorescence lifetime of 22.4 ns.

Consider `CCc1cc(CC)cc(-n2c3ccccc3c3cc4c(cc32)c2ccccc2n4-c2cc(CC)cc(CC)c2)c1`, for which the fluorescence lifetime (in ClC(Cl)Cl) was 3.69 ns.

Regarding `c1ccc(N(c2ccccc2)c2ccc(N(c3ccccc3)c3ccc4ccc5c(N(c6ccccc6)c6ccc(N(c7ccccc7)c7ccccc7)cc6)ccc6ccc3c4c65)cc2)cc1`, the fluorescence lifetime (in ClCCl) was found to be 2.7 ns.

In turn, `Fc1ccc(/C=C/c2nc3c4ccccc4c4ccccc4c3o2)cc1` displayed a fluorescence lifetime (in CC#N) of 1.88 ns.

In the case of `CC1(C)c2ccccc2N(c2ccc(-c3n[n+]4c(o3)-c3ccccc3O[B-]4(F)F)cc2)c2ccccc21`, for the setting “in ClCCl”, the fluorescence lifetime stood at 22 ns.

Compound `CCCCn1c2ccc(-c3cccs3)cc2c2c1c1c3ccc(-c4cccs4)cc3n(CCCC)c1c1c3ccc(-c4cccs4)cc3n(CCCC)c21` showed a fluorescence lifetime (in C1CCOC1) of 4.2 ns.

Consider `Cc1c(C)c(B(c2c(C)c(C)c(C#N)c(C)c2C)c2c(C)c(C)c(N3c4ccccc4Oc4ccccc43)c(C)c2C)c(C)c(C)c1C#N`, for which, under “in c1ccc([Si](c2ccccc2)(c2ccc(-n3c4ccccc4c4ccccc43)cc2)c2ccc(-n3c4ccccc4c4ccccc43)cc2)cc1”, the fluorescence lifetime was determined as 32 ns.

As for `Cc1oc2c(Cl)cc3c(C)cc(=O)oc3c2c1C`, the fluorescence lifetime is 0.08 ns (in C1COCCO1), 0.15 ns (in CC#N), 0.79 ns (in CCO) and 2.4 ns (in OCC(F)(F)F).

Where the note is “in C1CCOC1”, `N#Cc1ccc(/C=C/c2ccc(C=C(c3ccccc3)c3ccccc3)cc2)cc1` showed a fluorescence lifetime of 0.5 ns.

The compound `c1ccc([B-]2(c3ccccc3)Oc3ccc4ccccc4c3-c3c4ccccc4cc[n+]32)cc1` registered a fluorescence lifetime (in Cc1ccccc1) of 9.47 ns.

As to `CN(C)c1c2ccccc2cc2ccccc12`, the fluorescence lifetime by setting is: (in C1CCCCC1) 4.3 ns; (in C1CCOC1) 5.3 ns; (in C1COCCO1) 0.8 ns; (in CC#N) 3.9 ns; (in CCO) 5.1 ns; (in CN(C)C=O) 6.5 ns. Moreover, the fluorescence lifetime by setting is: (in CO) 4 ns; (in COCCOC) 4.8 ns; (in CS(C)=O) 8.2 ns; (in O) 5.7 ns; (in OCC(O)CO) 8.9 ns; (in OCCO) 7 ns.

For `CSC1=C2C=C(c3cc4n(c3)[B-](F)(F)[N+]3=CC=CC3=C4c3c(C)cc(C)cc3C)C(C)=[N+]2[B-](F)(F)n2c(C)ccc21`, the fluorescence lifetime came out at 2.67 ns (in C1CCCCC1); 0.17 ns (in CC#N); 0.39 ns (in CC(C)=O); 0.97 ns (in CCOC(C)=O); 1.81 ns (in Cc1ccccc1).

Compound `Cc1nc(-c2cc(C(F)(F)F)ccc2O)n2c1CCCC2` yielded a fluorescence lifetime (in ClCCl) of 3.7 ns.

Compound `CCOC(=O)c1ccccc1-c1c2ccc(=O)cc-2oc2cc(OC(=O)[C@H](CSCc3ccc(C)cc3)NC(=O)OC(C)(C)C)ccc12` yielded a fluorescence lifetime (in C1CCOC1) of 2.49 ns, a fluorescence lifetime (in CC#N) of 2.97 ns, a fluorescence lifetime (in CCO) of 3.29 ns and a fluorescence lifetime (in CS(C)=O) of 4.06 ns.

Turning to `CCNc1cc2oc3c/c(=[NH+]\CC)c(C)cc-3c(-c3ccccc3C(=O)OCC)c2cc1C`, the fluorescence lifetime is, setting by setting: (in CC#N) 4.18 ns; (in CC(C)O) 3.96 ns; (in CCCCCCCCO) 3.83 ns; (in CCCCCCO) 3.88 ns; (in CCCCO) 3.89 ns; (in CCCO) 3.95 ns. The fluorescence lifetime runs as follows: (in CCO) 3.96 ns; (in CN(C)C=O) 3.86 ns; (in CO) 3.7 ns; (in O) 4.22 ns; (in [2H]O[2H]) 4.36 ns.

`CN(C)c1ccc(-c2c(/C=C3/C=Cc4ccccc4N3Cc3ccccc3)c(=O)c2=O)cc1`: the fluorescence lifetime came out at 2.19 ns (in C1CCCCC1), 2.13 ns (in Cc1ccccc1) and 0.13 ns (in ClCCl).

For `CC1(C)c2ccccc2N(c2ccc(C(=O)c3cc(C(=O)c4ccc(N5c6ccccc6C(C)(C)c6ccccc65)cc4)cc(C(=O)c4ccc(N5c6ccccc6C(C)(C)c6ccccc65)cc4)c3)cc2)c2ccccc21`, the fluorescence lifetime (in Cc1ccccc1) was 16.7 ns and the fluorescence lifetime under setting [1] worked out at 25.8 ns.

Take `COc1ccc(-c2cc3c(s2)c(C)cc(=O)n3C)cc1`: the fluorescence lifetime (in ClCCl) was 0.63 ns.

`COc1cc2c(cc1-c1ccc(Cl)cc1)Cc1c3c(c4c(c1-2)-c1cc(OC)c(-c2ccc(Cl)cc2)cc1C4)C(=O)N(CCC(C)C)C3=O`: the fluorescence lifetime (in C1CCOC1) was 3.05 ns.

For `CCOC(=O)c1ccccc1-c1c2ccc(=O)cc-2oc2cc(OC(=O)[C@H](CO[Si](C)(C)C(C)(C)C)NC(=O)OC(C)(C)C)ccc12`, the fluorescence lifetime runs as follows: (in C1CCOC1) 2.3 ns; (in CC#N) 2.7 ns; (in CCO) 3.65 ns; (in CS(C)=O) 4.03 ns.

Compound `O=C1OC(=O)c2ccc(N(c3ccccc3)c3ccc4ccccc4c3)c3cccc1c23` returned a fluorescence lifetime (in C1CCOC1) of 1.09 ns, a fluorescence lifetime (in CCCCCC) of 8.42 ns and a fluorescence lifetime (in c1ccccc1) of 8.55 ns.

In turn, `CSc1sc(C(=O)c2ccccc2)c2nn[nH]c(=O)c12` showed a fluorescence lifetime (in C1CCOC1) of 0.33 ns; a fluorescence lifetime (in CC#N) of 0.41 ns; a fluorescence lifetime (in CCO) of 0.28 ns; a fluorescence lifetime (in CN(C)C=O) of 0.19 ns; a fluorescence lifetime (in CO) of 0.22 ns; a fluorescence lifetime (in CS(C)=O) of 0.13 ns.

The compound `c1ccc(-c2cc3cccc[n+]3[b-]3ccc(-c4cc[b-]5c(c4)c(-c4ccccc4)cc4cccc[n+]54)cc32)cc1` displayed a fluorescence lifetime (in C1CCCCC1) of 4 ns.

Regarding `CN(C)/C=N\c1ccc2c3c(cccc13)C(=O)c1ccccc1-2`, under “in ClC(Cl)Cl”, the fluorescence lifetime was 7.96 ns.

Regarding `c1ccc(-[c+]2c3ccccc3sc3ccccc32)cc1`, where the note is “in CC#N”, the fluorescence lifetime is 1 ns.

`C[Si]1(C)c2cc(-c3ccc(N(c4ccccc4)c4ccccc4)cc3)ccc2C=Cc2ccc(-c3ccc(N(c4ccccc4)c4ccccc4)cc3)cc21`: the fluorescence lifetime (in ClCCl) stood at 2.1 ns.

For `F[B-]1(F)Oc2ccc(Br)cc2-c2c3c(c4c([n+]21)CCc1ccccc1-4)CCc1ccccc1-3`, the fluorescence lifetime (in ClCCl) came out at 0.41 ns.

The compound `CCCCn1c(=O)c2cc3ccc4cccc5ccc(c2c1=O)c3c45` showed a fluorescence lifetime (in ClC(Cl)Cl) of 5.48 ns.

The compound `O=C(O)CCCCCn1c2ccc(Br)cc2c(=O)c2cc3c(cc21)c(=O)c1cc(Br)ccc1n3CCCCCC(=O)O` came in with a fluorescence lifetime (in CO) of 17.3 ns.

`N#Cc1c(-n2c3ccccc3c3cc(Br)ccc32)c(-n2c3ccccc3c3cc(Br)ccc32)c(C#N)c(-n2c3ccccc3c3cc(Br)ccc32)c1-n1c2ccccc2c2cc(Br)ccc21` registered a fluorescence lifetime (in Cc1ccccc1) of 0.4 ns.

Where the note is “in ClCCl”, `CCN(CC)c1ccc2c(c1)oc(=O)c1cc3cnn(-c4ccccc4)c3nc12` displayed a fluorescence lifetime of 16.9 ns.

`c1ccc2c(-c3cc(-c4nccs4)nc(-c4nccs4)c3)c3ccccc3cc2c1`: the fluorescence lifetime by setting is: (in CC#N) 2.32 ns; (in CCCCCC) 3.31 ns; (in CO) 2.5 ns; (in ClC(Cl)Cl) 2.34 ns.

Compound `c1ccc(-c2nc(-c3nc(-c4ccccc4)c(-c4ccccc4)o3)oc2-c2ccccc2)cc1` returned a fluorescence lifetime (in C1COCCO1) of 1.22 ns.
